What all share (test): inhibition of tumour cell growth, NCI panel, 48 h
In assay [1] the test system is MDA-MB-435.
Assay [2] concerns HOP-92 NSCLC.
In assay [3] the test system is MDA-MB-231 breast.
For assay [4], the system named is IGROV1 ovarian.
Assay [5] deals with HS 578T breast.
Assay [6] concerns HT29 colon.
The test system of assay [7] is MOLT-4 leukemia.
Assay [8] relates to LOX IMVI melanoma.
For assay [9], the system named is COLO 205 colon.
Assay [10] relates to RXF 393 renal.
Assay [11] deals with 786-0 renal.
Assay [12] deals with UACC-62 melanoma.
The subject of assay [13] is SF-268 CNS.

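48-hour exposure; five concentrations; linearly interpolated endpoints. TGI denotes the concentration required for complete inhibition of growth.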

For the compound `C=C1C(=O)C23CC1C[C@H](OC(C)=O)C2C1(C)C(OC(C)=O)C[C@H](O)C(C)(C)[C@H]1C(O)[C@@H]3OC(C)=O` (some centres undefined), the TGI was found to be 20.6 µM in [1]; 24.8 µM in [2]; 18.6 µM in assay [3]; 30.6 µM in assay [4]; 41.9 µM in assay [5]; 30 µM in assay [6]. Moreover, the TGI in assay [7] stood at 8.64 µM; in assay [8], 30.3 µM; in assay [9] it was 14.5 µM; in assay [10], 19.9 µM; in [11], 20.7 µM; in assay [12] it was 26.5 µM. For the same compound, the TGI in assay [13] came to 28.5 µM.

As for `COc1cc(-c2coc3c(OC)c(OC4OC(CO)C(O)C(O)C4O)c(OC)cc3c2=O)cc(OC)c1C` (centres undefined), the TGI in assay [1] is 17.9 µM; in assay [2], 38.4 µM; in [3] it was more than 54.5 µM; in [4] it was 30.9 µM; in [5], 15.4 µM; in assay [6], 35.1 µM. In addition, the TGI in assay [7] is more than 36 µM; in assay [8], more than 31.2 µM; in assay [9] it was more than 54.2 µM; in assay [10], 8.85 µM; in assay [11], more than 100 µM; in assay [12], 17.2 µM. For the same compound, the TGI in assay [13] turned out to be 21.5 µM.

On to `CC(C)/C=N\n1c(N)c(C#N)c(C#N)c1C(C)C`, for which the TGI in assay [1] was 95.1 µM; in assay [2], 38.3 µM; in assay [3] it was more than 100 µM; in assay [4], 77.8 µM; in [5], 95.3 µM; in assay [6], more than 100 µM. Besides, the TGI is 63.4 µM in assay [7]; 97.8 µM in assay [8]; 45.7 µM in assay [9]; more than 100 µM in [10]; more than 100 µM in assay [11]; 34.7 µM in assay [12]. For the same compound, the TGI in [13] is more than 100 µM.

As to `CCCCc1c2c(nc3c1CCC/C3=C\c1ccccc1)C(=O)C(CN(C)C)CC2` (centres undefined), the TGI was 37.2 µM in assay [1]; 33.5 µM in assay [2]; 31.9 µM in assay [3]; 36.9 µM in assay [4]; 70.8 µM in assay [5]; 28.9 µM in [6]. Moreover, the TGI in [7] came out at 11.5 µM; in assay [8] it was 30.9 µM; in assay [9] it was 36.6 µM; in assay [10] it was 30.9 µM; in [11], 23.9 µM; in [12], 48.4 µM. Moreover, the TGI in assay [13] is 35.6 µM.

On to `OC1CC(O)c2c(Cl)sc(Cl)c21` (centres undefined), for which the TGI in assay [1] is more than 100 µM; in [2], 56.2 µM; in assay [3], more than 100 µM; in assay [4], more than 100 µM; in [5] it was 82.4 µM; in assay [6], more than 100 µM. Also, the TGI in [7] was more than 100 µM; in [8] it was more than 100 µM; in [9], 33.4 µM; in [10] it was 11.5 µM; in [11], more than 100 µM; in assay [12], more than 100 µM. This compound came in with a TGI in assay [13] of more than 100 µM.

Consider `O=c1c2cccnc2nc2ccc3c[nH][nH]c3c12`, for which the TGI in [1], in assay [2], in [3], in [4], in assay [5] and in assay [6] was more than 10 µM each time. In addition, the TGI in [7], in assay [8], in assay [9], in assay [10], in assay [11] and in [12] was more than 10 µM throughout. In addition, the TGI in assay [13] was more than 10 µM.

For `CCOC(=O)CCC(NC(=O)c1ccc(Nc2nc3cc(C(F)(F)F)ccc3nc2-c2ccccc2)cc1)C(=O)OCC` (centres undefined), the TGI in assay [1], in assay [2], in assay [3], in assay [4], in assay [5] and in assay [6] was more than 100 µM in each case. Further, the TGI in assay [7], in [8], in assay [9], in assay [10], in assay [11] and in assay [12] was more than 100 µM each time. In assay [13], the TGI is more than 100 µM.

As to `O=C1CC2(CCC(O)(c3ccc(Cl)cc3)C(C(=O)c3ccc(Cl)cc3)C2)C(=O)c2ccccc2N1` (centres undefined), the TGI in assay [1] is more than 100 µM; in [2], 8.31 µM; in [3], 30.6 µM; in assay [4], more than 52.1 µM; in assay [5], 7.44 µM; in assay [6] it was more than 50 µM. Further, the TGI in assay [7] is 8.56 µM; in [8], more than 86.8 µM; in assay [9], more than 56.5 µM; in assay [10] it was 22.3 µM; in assay [11], 4.24 µM; in assay [12], more than 52.8 µM. In addition, in assay [13], the TGI came out at 17 µM.

The values are drawn from PubChem BioAssay (NCI).
